Tested on: AGR2 mRNA
Assay: Promoting action of humectant on AGR2 gene expression level in normal human epidermal cells (Real-Time PCR)
Format: cell-based
Conditions: NHEK, 72 hour culture; for AGR2 expression compared to that in the control: result in words; for AGR2 expression level (relative value): normalized with RPLP0, control (99.5% EtOH solvent) = 1, n=2
Protocol: The normal human epidermal cells (NHEK) were cultured under conditions of 37° C. and 5% CO2 using EpiLife (Registered Trademark) (purchased from Kurabo). The cells were seeded in a 12 well plate at 1×10^5 cells and cultured for 48 hours, and the medium was then exchanged with a serum-free medium. Further, vitamin D3, which is a known agent for ameliorating dry skin, (99.5% ethanol solution, final concentration 1 nM or 10 nM) (Nutrients, 4(9):1213-8, 2012), eucalyptus extract (50% ethanol solution, final concentration 0.001%) (J Cosmet Dermatol, 12(1):3-11, 2013), macrocarpal, which is a major physiologically active substance of eucalyptus extract (50% ethanol solution, final concentration 10 nM) (Int J Cosmet Sci, 34(1):17-22, 2012), or 99.5% ethanol or 50% ethanol as a control was added to the medium. After 72 hour culture, total RNA was extracted from cells using RNeasy (Registered Trademark) Mini Kit (QIAGEN). The concentration of total RNA was measured and a reverse transcription reaction was carried out using a constant amount of total RNA. High capacity RNA-to-cDNA kit (Applied Biosystems) was used for the reverse transcription reaction. The expression of AGR2 mRNA was quantitatively determined from the obtained cDNA by Real-Time PCR. Taqman (Registered Trademark) Probe (AGR2: Hs00180702_m1, Applied Biosystems) was used for quantitative determination, and PRISM 7500 (Applied Biosystems) was used for detection and quantitative determination. PCR was carried out in a 20 μL reaction system and the amplification conditions were a denaturation reaction at 95° C. for 15 seconds, annealing at 60° C. for a minute and an elongation reaction. The mRNA expression level was normalized with the expression level of RPLP0 (Hs99999902_m1, Applied Biosystems) and shown as a relative value in the case where the mean expression level of AGR2 in a control (only 99.5% EtOH solvent) was considered as 1.

For C=C1CC[C@H](O)C/C1=C/C=C1\CCC[C@]2(C)[C@@H]([C@H](C)CCCC(C)C)CC[C@@H]12 [Vitamin D3, vitamin D3], the “AGR2 expression compared to that in the control” value was “increased”, the “AGR2 expression level (relative value)” value (final concentration 1 nM) was 1.05 and the “AGR2 expression level (relative value)” value (final concentration 10 nM) was 1.17.

With macrocarpal the “AGR2 expression compared to that in the control” value was “increased” and the “AGR2 expression level (relative value)” value (final concentration 10 nM) was 1.17.
